Data reported in patent US6184388A, “Substituted aminocycloalkylpyrrolidine derivatives and cis-substituted aminocycloalkylpyrrolidine derivatives” (Daiichi Pharmaceutical Co., Ltd., priority 1995, dated 2001).
≈ marks a conversion by molar mass, not a printed value. Where a name gives a salt, the structure may show the parent alone.

What was measured:
[1] = system: Slc:ddy five week male mice; test: acute toxicity, intravenous, mice; assay type: in vivo; conditions: for acute toxicity result compared with the table above: stated in words
Description: A solution of 5-amino-7-[4-(R)-(1-aminocyclopropyl)-3-(S)-fluoro-1-pyrrolidinyl]-6-fluoro-1-[2-(S)-fluoro-1-(R)-cyclopropyl]-1,4-dihydro-8-methyl-4-oxoquinoline-3-carboxylic acid (abbreviated as cis) hydrochloride of Example 15 or 5-amino-7-[4-(R)-(1-aminocyclopropyl)-3-(R)-fluoro-1-pyrrolidinyl]-6-fluoro-1-[2-(S)-fluoro-1-(R)-cyclopropyl]-1,4-dihydro-8-methyl-4-oxoquinoline-3-carboxylic acid (abbreviated as trans) hydrochloride in distilled water for injection was administered intravenously to Slc:ddy five week male mice (five mice per group) and the symptoms are observed.

[2] = system: Ps. maltophilia, IID-1275; test: antimicrobial activity (MIC), standard method of the Japan Society of Chemotherapy; assay type: cell-based; conditions: for MIC: Stenotrophomonas maltophilia, IID1275, IID-1275 (Table 5: X. maltophilia, IID-1275), read-out: minimum inhibitory concentration (MIC)
Description: (§1) Examples of the first and second aspects of the present invention are given below by way of illustration and not by way of limitation. In this regard, the antibacterial and antimicrobial activities of the compounds of interest were measured in accordance with the standard method specified by the Japan Society of Chemotherapy. The results are shown in Tables 1 to 5 as a minimum inhibitory concentration (MIC, μg/ml). Unless otherwise indicated, all percents (%) are by weight.

E. coli, NIHJ = test: as above; assay type: cell-based; conditions: Escherichia coli, read-out: minimum inhibitory concentration (MIC)
Description: as §1

[3] = 150 mg/kg, *: died immediately after administration, test stopped when second mouse died

SMILES	acute toxicity result compared with the table above ([1]; 150 mg/kg)	MIC [2]	other results
C[C@H]1COc2c(N3C[C@@H](F)[C@@H](C4(N)CC4)C3)c(F)cc3c(=O)c(C(=O)O)cn1c23 [Example 17, 10-[4-(R)-(1-Aminocyclopropyl)-3-(S)-fluoro-1-pyrrolidinyl]-9-fluoro-2,3-dihydro-3-(S)-methyl-7-oxo-7H-pyrido[1,2,3-de][1,4]benzoxazine-6-carboxylic acid]	same result	–	–
Cc1c(N2C[C@H](F)[C@@H](C3(N)CC3)C2)c(F)c(N)c2c(=O)c(C(=O)O)cn([C@@H]3C[C@@H]3F)c12 [Example 5, 5-Amino-7-[4-(R)-(1-aminocyclopropyl)-3-(R)-fluoro-1-pyrrolidinyl]-6-fluoro-1-[2-(S)-fluoro-1-(R)-cyclopropyl]-1,4-dihydro-8-methyl-4-oxoquinoline-3-carboxylic acid hydrochloride]	–	–	Number of death ([1]; 50 mg/kg): 0/5; Number of death ([1]; 100 mg/kg, *: died immediately after administration, test stopped when second mouse died): 2/2; Number of death [1, 3]: 2/2
Cc1c(N2C[C@@H](F)[C@@H](C3(N)CCC3)C2)c(F)c(N)c2c(=O)c(C(=O)O)cn([C@@H]3C[C@@H]3F)c12 (single isomer, unassigned; isomer b) [Example 13]	same result	–	minimum inhibitory concentration (MIC) ([2]; IID-1275 (Table 5: X. maltophilia, IID-1275)): 0.20 µg/mL (≈ 0.444 µM)
COc1c(N2C[C@@H](F)[C@@H](C3(N)CC3)C2)c(F)c(N)c2c(=O)c(C(=O)O)cn([C@@H]3C[C@@H]3F)c12 [Example 16, 5-Amino-7-[4-(R)-(1-aminocyclopropyl)-3-(S)-fluoro-1-pyrrolidinyl]-6-fluoro-1-[2-(S)-fluoro-1-(R)-cyclopropyl]-1,4-dihydro-8-methoxy-4-oxoquinoline-3-carboxylic acid]	same result	0.2 µg/mL (≈ 0.442 µM)	–
C[C@H]1COc2c(N3C[C@@H](F)[C@@H](C4(N)CC4)C3)c(F)c(N)c3c(=O)c(C(=O)O)cn1c23 [Example 21, 8-Amino-10-[4-(R)-(1-aminocyclopropyl)-3-(S)-fluoro-1-pyrrolidinyl]-9-fluoro-2,3-dihydro-3-(S)-methyl-7-oxo-7H-pyrido[1,2,3]-de[1,4]benzoxazine-6-carboxylic acid]	same result	0.39 µg/mL (≈ 0.928 µM)	–
Cc1c(N2C[C@@H](F)[C@@H](C3(N)CC3)C2)c(F)c(N)c2c(=O)c(C(=O)O)cn([C@@H]3C[C@@H]3F)c12 [Example 15, 5-Amino-7-[4-(R)-(1-aminocyclopropyl)-3-(S)-fluoro-1-pyrrolidinyl]-6-fluoro-1-[2-(S)-fluoro-1-(R)-cycloproyl]-1,4-dihydro-8-methyl-4-oxoguinoline-3-carboxylic acid hydrochloride]	–	0.05 µg/mL	Number of death [1, 3]: 0/5
COc1c(N2C[C@@H](F)[C@@H](C3(N)CC3)C2)c(F)cc2c(=O)c(C(=O)O)cn([C@@H]3C[C@@H]3F)c12 [Example 12, 7-[4-(R)-(1-Aminocyclopropyl)-3-(S)-fluoro-1-pyrrolidinyl]-6-fluoro-1-[2-(S)-fluoro-1-(R)-cyclopropyl]-1,4-dihydro-8-methoxy-4-oxoguinoline-3-carboxylic acid]	same result	–	MIC (E. coli, NIHJ): ≤ 0.013 µg/mL
C[C@H]1COc2c(N3C[C@@H](F)[C@@H](C4(N)CC4)C3)c(F)cc3c(=O)c(C(=O)O)cn1c23.Cl [Example 19, 10-[4-(R)-(1-Aminocyclopropyl)-3-(S)-fluoro-1-pyrrolidinyl]-9-fluoro-2,3-dihydro-3-(S)-methyl-7-oxo-7H-pyrido[1,2,3-de][1,4]benzoxazine-6-carboxylic acid hydrochloride]	–	0.39 µg/mL	–
Cc1c(N2C[C@@H](CO)[C@@H](C3(N)CC3)C2)c(F)c(N)c2c(=O)c(C(=O)O)cn(C3CC3)c12 (relative stereo) [Example 14, 5-Amino-7-[cis-4-(1-aminocyclopropyl)-3-hydroxymethyl-1-pyrrolidinyl]-1-cyclopropyl-6-fluoro-1,4-dihydro-8-methyl-4-oxoguinoline-3-carboxylic acid]	same result	–	–
